{
  "source": "patent US20100055691A1",
  "about": "“SCREENING METHOD FOR THERAPEUTIC AGENT FOR AMYOTROPHIC LATERAL SCLEROSIS” (HISAMITSU PHARMACEUTICAL CO.,IN., priority 2006, published 2010)",
  "assay_type_in_all_cases": "cell-based",
  "key": {"Tollip": {"tested_on": "Tollip", "assay": "cell fractionation and western blotting of the intracellular localization of Tollip", "settings": "HEK293 cells transfected with Tollip-Myc-pcDNA3, 100 ng/mL TNF-α up to 48 h", "experimental": "Firstly, the intracellular localization of alsin and Tollip was examined by cell fractionation and with western blotting. To be more specific, HEK293 cells were transfected with ALS2CR6-FLAG-pIRESpuro2 or Tollip-Myc-pcDNA3 and 24 h later, the cells were lysed and fractionated by a standard method. After that, western blotting (WB) was carried out. In the WB, lamin, which is localized in the cell nucleus only, and tubulin, which is localized in the cytoplasm only, were used as controls; mouse anti-lamin B (101-B7) NA12 (CALBIOCHEM) or mouse anti-tubulin (Ab-2) (clone DM1A) (LABVISION/NEOMARKERS) were used as primary antibodies, and goat anti-mouse SC-2005 (Santa Cruz) was used as the secondary antibody.\nNext, with HEK293 cells transfected with Tollip-Myc-pcDNA3, we examined how the intracellular localization of Tollip changed by TNF-α treatment. Treatment with 100 ng/mL of TNF-α was given up to 48 h and changes in localization of Tollip were checked at different time points."}, "[1]": {"tested_on": "Tollip and IRAK-1 complex", "assay": "immunoprecipitation of the interaction between Tollip and IRAK-1", "settings": "HEK293 cells transfected with Tollip-Myc-pcDNA3, 100 ng/mL TNF-α for 1 h", "experimental": "There has been a report that Tollip binds to IRAK-1 in IL-1R/TLR signaling. We examined whether this happened in TNF-α signaling also. The experiment was carried out by the immunoprecipitation method, which can verify binding of proteins. HEK293 cells were transfected with Tollip-Myc-pcDNA3. Then, after 24 h, some of the cells were treated for 1 h with 100 ng/mL of TNF-α while others were not treated. After that, the cells were lysed and immunoprecipitation […] was carried out. For the immunoprecipitation, Chrom PumPure mouse IgG (Jackson Immunoresearch) was used as the control, mouse anti-IRAK-1(F-4)SC-5288 (Santa Cruz) and mouse anti-Myc(9B11)#2276 (Santa Cruz) were used as primary antibodies, and goat anti-mouse SC-2005 (Santa Cruz) was used as the secondary antibody."}, "[2]": {"tested_on": "NFκB protein in HEK293 cells", "assay": "western blotting of NFκB protein in cell nucleus and cytoplasm", "settings": "100 ng/mL TNF-α for 1, 2, 4, 8 or 24 h", "experimental": "Furthermore, the expression level of the NFκB protein in the cell nucleus and the cytoplasm of HEK293 cells treated with 100 ng/mL of TNF-α for 1, 2, 4, 8, or 24 h was examined using western blotting (WB). For this WB, rabbit anti-NFκB p65(C-20) SC-372 (Santa Cruz) was used as the primary antibody and goat anti-rabbit SC-2004 (Santa Cruz) as the secondary antibody."}, "[3]": {"tested_on": "NFκB activity in HEK293 cells", "assay": "luciferase assay of induction of NFκB activity by TNF-α", "experimental": "Firstly, for establishing the experiment system, we screened various treatment times and doses of TNF-α to determine the optimum conditions for induction of NFκB activity by TNF-α. The luciferase assay was used for the screening. To be more specific, firstly, the NFκB gene was introduced upstream of LUC into pELAM1-Luc, which is a luciferase (LUC) reporter vector, and a vector for expressing NFκB/LUC fusion protein was prepared. Next, HEK293 cells were transfected with this expression vector. 24 h after the transfection, the cells were treated with 10 ng/mL of TNF-α for 1, 2, 4, 8, or 24 h. After that, the luciferase assay was carried out by a standard method, and the level of transcription of the NFκB, which was the target gene, was examined. FIG. 9 (A) confirms that highest NFκB activity was induced 1 h after the treatment with TNF-α.\nThe level of transcription of NFκB was measured using different concentrations of TNF-α: 10, 100, and 1000 ng/mL, keeping the treatment time constant at 1 h. FIG. 9 (B) confirms that the highest NFκB activity was induced with 100 ng/mL."}},
  "data": [
    {"substance": "TNF-α", "values": [
      {"measurement": "expression of Tollip", "setting": "Tollip", "result": "decreased the expression of Tollip"},
      {"measurement": "intracellular localization of Tollip", "setting": "Tollip", "result": "made Tollip to migrate to the cell nucleus"},
      {"measurement": "binding of Tollip and IRAK-1", "setting": "[1]", "result": "suppressed"},
      {"measurement": "time of highest level of NFκB protein in the cell nucleus", "setting": "[2]", "result": 1, "unit": "h"},
      {"measurement": "treatment time at which highest NFκB activity was induced", "setting": "[3]; HEK293 cells, 10 ng/mL TNF-α for 1, 2, 4, 8 or 24 h", "result": 1, "unit": "h"},
      {"measurement": "concentration at which highest NFκB activity was induced", "setting": "[3]; HEK293 cells, 10, 100 and 1000 ng/mL, treatment time 1 h", "result": 100, "unit": "ng/mL"}
    ]}
  ]
}
